Laboratory results: BigSolDB 2.1

O=c1cc(CO)occ1O
solubility (mole fraction) (in THF, 278.15 K): 0.00384
solubility (mole fraction) (in THF, 283.15 K): 0.00435
solubility (mole fraction) (in THF, 288.15 K): 0.00541
solubility (mole fraction) (in THF, 293.15 K): 0.00663
solubility (mole fraction) (in THF, 298.15 K): 0.00799
solubility (mole fraction) (in THF, 303.15 K): 0.00961
solubility (mole fraction) (in THF, 308.15 K): 0.0116
solubility (mole fraction) (in THF, 313.15 K): 0.0134
solubility (mole fraction) (in THF, 318.15 K): 0.017
solubility (mole fraction) (in THF, 323.15 K): 0.0199
solubility (mole fraction) (in acetonitrile, 278.15 K): 0.00062
solubility (mole fraction) (in acetonitrile, 283.15 K): 0.00078
solubility (mole fraction) (in acetonitrile, 288.15 K): 0.00097
solubility (mole fraction) (in acetonitrile, 293.15 K): 0.00122
solubility (mole fraction) (in acetonitrile, 298.15 K): 0.00151
solubility (mole fraction) (in acetonitrile, 303.15 K): 0.00184
solubility (mole fraction) (in acetonitrile, 308.15 K): 0.00226
solubility (mole fraction) (in acetonitrile, 313.15 K): 0.00276
solubility (mole fraction) (in acetonitrile, 318.15 K): 0.00341
solubility (mole fraction) (in acetonitrile, 323.15 K): 0.00424
solubility (mole fraction) (in isopropanol, 278.15 K): 0.00213
solubility (mole fraction) (in isopropanol, 283.15 K): 0.00266
solubility (mole fraction) (in isopropanol, 288.15 K): 0.0032
solubility (mole fraction) (in isopropanol, 293.15 K): 0.00392
solubility (mole fraction) (in isopropanol, 298.15 K): 0.00478
solubility (mole fraction) (in isopropanol, 303.15 K): 0.00557
solubility (mole fraction) (in isopropanol, 308.15 K): 0.00667
solubility (mole fraction) (in isopropanol, 313.15 K): 0.00814
solubility (mole fraction) (in isopropanol, 318.15 K): 0.00974
solubility (mole fraction) (in isopropanol, 323.15 K): 0.0116
solubility (mole fraction) (in methyl acetate, 278.15 K): 0.00085
solubility (mole fraction) (in methyl acetate, 283.15 K): 0.0011
solubility (mole fraction) (in methyl acetate, 288.15 K): 0.00141
solubility (mole fraction) (in methyl acetate, 293.15 K): 0.00172
solubility (mole fraction) (in methyl acetate, 298.15 K): 0.00213
solubility (mole fraction) (in methyl acetate, 303.15 K): 0.0026
solubility (mole fraction) (in methyl acetate, 308.15 K): 0.00317
solubility (mole fraction) (in methyl acetate, 313.15 K): 0.00385
solubility (mole fraction) (in methyl acetate, 318.15 K): 0.00467
solubility (mole fraction) (in methyl acetate, 323.15 K): 0.00556
solubility (mole fraction) (in n-butanol, 278.15 K): 0.00193
solubility (mole fraction) (in n-butanol, 283.15 K): 0.00242
solubility (mole fraction) (in n-butanol, 288.15 K): 0.00289
solubility (mole fraction) (in n-butanol, 293.15 K): 0.00364
solubility (mole fraction) (in n-butanol, 298.15 K): 0.00452
solubility (mole fraction) (in n-butanol, 303.15 K): 0.00538
solubility (mole fraction) (in n-butanol, 308.15 K): 0.00646
solubility (mole fraction) (in n-butanol, 313.15 K): 0.00779
solubility (mole fraction) (in n-butanol, 318.15 K): 0.00935
solubility (mole fraction) (in n-butanol, 323.15 K): 0.011
solubility (mole fraction) (in n-pentanol, 278.15 K): 0.00185
solubility (mole fraction) (in n-pentanol, 283.15 K): 0.00222
solubility (mole fraction) (in n-pentanol, 288.15 K): 0.0028
solubility (mole fraction) (in n-pentanol, 293.15 K): 0.00392
solubility (mole fraction) (in n-pentanol, 298.15 K): 0.00417
solubility (mole fraction) (in n-pentanol, 303.15 K): 0.00506
solubility (mole fraction) (in n-pentanol, 308.15 K): 0.00611
solubility (mole fraction) (in n-pentanol, 313.15 K): 0.00733
solubility (mole fraction) (in n-pentanol, 318.15 K): 0.00882
solubility (mole fraction) (in n-pentanol, 323.15 K): 0.0106
solubility (mole fraction) (in sec-butanol, 278.15 K): 0.00202
solubility (mole fraction) (in sec-butanol, 283.15 K): 0.00245
solubility (mole fraction) (in sec-butanol, 288.15 K): 0.00315
solubility (mole fraction) (in sec-butanol, 293.15 K): 0.00387
solubility (mole fraction) (in sec-butanol, 298.15 K): 0.00465
solubility (mole fraction) (in sec-butanol, 303.15 K): 0.0057
solubility (mole fraction) (in sec-butanol, 308.15 K): 0.0069
solubility (mole fraction) (in sec-butanol, 313.15 K): 0.00817
solubility (mole fraction) (in sec-butanol, 318.15 K): 0.00981
solubility (mole fraction) (in sec-butanol, 323.15 K): 0.0117
